Measured values reported in PubChem BioAssay (NCI).
Where “and” joins values, the source holds several entries; their conditions need not be identical. Equal values may be shown once.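 Interpolation was linear, between the two tested concentrations surrounding the appropriate level; five concentrations were tested over 48 hours in 96-well plates. GI50 = concentration required for 50% inhibition of growth. TGI marks complete inhibition of growth.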

Legend:
Assay in all cases: DTP human tumour cell line panel, 48 h
LOX IMVI melanoma = tested on: LOX IMVI melanoma
CAKI-1 renal = tested on: CAKI-1 renal
ACHN renal = tested on: ACHN renal
MDA-MB-435 = tested on: MDA-MB-435
SK-MEL-28 melanoma = tested on: SK-MEL-28 melanoma
HOP-62 NSCLC = tested on: HOP-62 NSCLC
BT-549 breast = tested on: BT-549 breast
OVCAR-5 ovarian = tested on: OVCAR-5 ovarian
SNB-75 CNS = tested on: SNB-75 CNS
SNB-19 CNS = tested on: SNB-19 CNS

SMILES	GI50 (LOX IMVI melanoma)	TGI (LOX IMVI melanoma)	GI50 (CAKI-1 renal)	TGI (CAKI-1 renal)	GI50 (ACHN renal)	TGI (ACHN renal)	GI50 (MDA-MB-435)	TGI (MDA-MB-435)	GI50 (SK-MEL-28 melanoma)	TGI (SK-MEL-28 melanoma)	GI50 (HOP-62 NSCLC)	TGI (HOP-62 NSCLC)	GI50 (BT-549 breast)	TGI (BT-549 breast)	GI50 (OVCAR-5 ovarian)	TGI (OVCAR-5 ovarian)	GI50 (SNB-75 CNS)	TGI (SNB-75 CNS)	GI50 (SNB-19 CNS)	TGI (SNB-19 CNS)
COc1ccc(/C=C/C(=O)c2ccc(Nc3nc(Nc4ccc(F)cc4)nc(Nc4ccc(Cl)cc4)n3)cc2)cc1	> 100 µM	> 100 µM	69.6 µM	> 100 µM	> 100 µM	> 100 µM	> 100 µM	> 100 µM	> 100 µM	> 100 µM	> 100 µM	> 100 µM	> 100 µM	> 100 µM	> 100 µM	> 100 µM	16.2 µM	45.8 µM	> 100 µM	> 100 µM
O=C(O)c1ccc(C(=O)O)c(C(=O)O)c1.[NH-]C1CCCCC1[NH-].[Pt+2]	3.45 µM	68.2 µM	1.86 µM	32.7 µM	1.96 µM	44.1 µM	3.83 µM	30.4 µM	4.97 µM	48.1 µM	11.7 µM	> 74.4 µM	23.8 µM	54.2 µM	6.32 µM	35.5 µM	18 µM	78.9 µM	11 µM	> 93.8 µM
O=C(/C=C/c1cccc(S(=O)(=O)Nc2ccccc2)c1)NO	0.259 µM and 0.293 µM	1.62 µM and 10.2 µM	0.401 µM and 0.462 µM	2.48 µM and 1.86 µM	0.429 µM and 0.422 µM	3.22 µM and 8.44 µM	0.29 µM and 0.194 µM	3.48 µM and 2.07 µM	1 µM and 1.55 µM	10.3 µM and 51.8 µM	0.529 µM and 0.325 µM	13.1 µM and 5.34 µM	3.53 µM and 2.16 µM	44.5 µM and 71.9 µM	0.428 µM and 0.146 µM	13.2 µM and > 16.9 µM	–	58.1 µM and > 54 µM	0.841 µM and 0.835 µM	19.5 µM and 41.5 µM
CCOc1cc(/C=C/C(=O)C(C(=O)/C=C/c2ccc(OC(=O)CNc3nnc(C)s3)c(OCC)c2)C(=O)CNc2nnc(C)s2)ccc1OC(=O)CNc1nnc(C)s1	0.897 µM	2.21 µM	2.8 µM	> 29 µM	1.77 µM	3.42 µM	1.53 µM	8.7 µM	1.45 µM	2.92 µM	3.52 µM	11.8 µM	1.98 µM	5.33 µM	2.43 µM	5.41 µM	2.93 µM	9.77 µM	2.52 µM	11.1 µM
NC(=O)CCc1ccccc1Oc1nccc(-c2c(-c3ccc(F)cc3)ncn2C2CCNCC2)n1	> 25 µM	> 25 µM	> 25 µM	> 25 µM	> 25 µM	> 25 µM	> 25 µM	> 25 µM	> 25 µM	> 25 µM	> 25 µM	> 25 µM	> 25 µM	> 25 µM	> 25 µM	> 25 µM	> 25 µM	> 25 µM	> 25 µM	> 25 µM
O=C1/C(=C\c2ccccc2)CN(C(=O)c2ccccc2)C/C1=C\c1ccccc1	1.38 µM	2.89 µM	2.74 µM	11.1 µM	1.73 µM	3.33 µM	1.61 µM	5 µM	1.82 µM	3.47 µM	3.21 µM	10.7 µM	1.86 µM	3.58 µM	2.24 µM	6.83 µM	7.24 µM	22 µM	3.79 µM	15.1 µM
CN(CSc1ccc(Cl)cc1)c1ccc(CSc2ccc(Cl)cc2)cc1	1.63 µM	6.32 µM	2.32 µM	8.64 µM	6.28 µM	22.3 µM	2.68 µM	11.9 µM	5.55 µM	19.6 µM	13.6 µM	29.9 µM	1.16 µM	3.6 µM	13.5 µM	34.5 µM	2.93 µM	16.1 µM	9.14 µM	23.2 µM
O=C(Nc1ccc(I)cc1)c1cccc([N+](=O)[O-])c1O	3.28 µM	> 100 µM	2.91 µM	> 100 µM	4.16 µM	> 100 µM	3.07 µM	> 100 µM	4.63 µM	> 100 µM	6.93 µM	> 100 µM	3.01 µM	19 µM	18.1 µM	> 100 µM	2.77 µM	38.6 µM	3.68 µM	> 100 µM
NS(=O)(=O)c1ccc(N=C2C(=O)Nc3ccccc32)cc1	–	> 100 µM	–	> 100 µM	–	> 100 µM	–	72.7 µM	–	> 100 µM	–	> 100 µM	–	> 100 µM	–	> 100 µM	–	> 100 µM	–	> 100 µM
C/C(=N\O)c1cccc(Nc2cc(-c3ccccc3)nc3c(O)cccc23)c1	3.12 µM	19.7 µM	2.78 µM	> 37.3 µM	6.57 µM	22.5 µM	0.271 µM	2.01 µM	10.9 µM	27.8 µM	3.09 µM	15 µM	11.8 µM	52.3 µM	12.5 µM	32.2 µM	3.21 µM	28.4 µM	1.13 µM	9.42 µM
O=C(Cc1ccc(Nc2ccnc(C(F)(F)F)c2)cc1)N/N=C/c1ccccc1O	1.34 µM	15.9 µM	1.35 µM	13 µM	1.46 µM	> 51.4 µM	3.67 µM	> 77.5 µM	3.89 µM	61.4 µM	3.08 µM	> 48.6 µM	2.43 µM	> 39.2 µM	7.62 µM	> 83.1 µM	4.81 µM	79.3 µM	4.36 µM	> 100 µM
CCN1C(=O)N(CC)C2C1NC(=S)N2/N=C/C=C/c1ccccc1OC (centres undefined)	0.0342 µM	> 100 µM	0.0514 µM	> 100 µM	0.0401 µM	> 100 µM	0.0189 µM	0.0539 µM	16.1 µM	> 100 µM	0.0463 µM	> 100 µM	0.0258 µM	38.2 µM	0.0715 µM	> 100 µM	0.0389 µM	> 100 µM	0.0482 µM	> 100 µM
Oc1ccc(Cc2ccc(O)c(C3CC(c4ccc(Cl)cc4)=NN3)c2)cc1C1CC(c2ccc(Cl)cc2)=NN1 (centres undefined)	2.22 µM	12 µM	3.19 µM	> 58.4 µM	3.1 µM	> 31.8 µM	3.23 µM	20.2 µM	5.74 µM	> 49.9 µM	3.81 µM	> 45.2 µM	4.19 µM	23.3 µM	4.45 µM	> 35.7 µM	3.7 µM	> 82.3 µM	3.65 µM	> 43.6 µM
